From patent US6703212B1, “Methods and kits for diagnosing Alzheimer's disease from a blood sample” (priority 1997, dated 2004)

Test system: PKC
Assay: Fluorescence properties of fim-1 with liposomes, purified PKC and erythrocytes
Assay type: biochemical
Settings: fim-1 500 nM, Ex 485 nm
Protocol: Liposomes prepared from lipidic extracts of brain and a commercial preparation of purified a PKC are used, then erythrocytes are added.
This preparation is incubated for 20 minutes at ambient temperature, in the presence of fim-1 (500 nM) in a PBS buffer (150 mM NaCl, 10 mM NaHPO4, 5 mM D-glucose, 500 μm CaCl2, pH 7.4.
After washing, centrifugation and resuspension in PBS 1/150, the fluorescence emission spectrum is recorded between […], with an excitation wavelength of 485 nm.
The spectrum obtained is standardized relative to the fluorescence intensity measured with the probe alone, then broken down into the 3 elementary gaussian distributions represented in FIG. 1. An emission maximum is noted at 518, 535 and 586 nm respectively. The interactions between fim-1 and the membrane lipids as well as the PKC is expressed by a slight shift of the spectrum between […] for the lipids and an increase in fluorescence between 510 and 530 nm, and beyond 570 nm for the PKC.

Compound | increase of quantal yield of fim-1 fluorescence (factor) (in the presence of activator) | effect on fluorescence intensity of fim-1 (addition of inhibitor)
CCCCCCCCCCCCCC(=O)O[C@@H]1[C@@H](C)[C@@]2(O)[C@@H](C=C(CO)C[C@]3(O)C(=O)C(C)=C[C@@H]23)[C@@H]2C(C)(C)[C@]12OC(C)=O [phorbol ester, phorbol myristate acetate] | 5000 | 
CN[C@@H]1C[C@H]2O[C@@](C)([C@@H]1OC)n1c3ccccc3c3c4c(c5c6ccccc6n2c5c31)C(=O)NC4 [staurosporine] |  | inhibition in the fluorescence intensity
